Where a name gives a salt, the structure may show the parent alone. Read-outs that look alike come from different tables or passages of the source.
How the values were obtained:
[1] = in vitro; details: human
[2] = tested on: Toxoplasma gondii RH-2F tachyzoites; assay: microbe, parasite or virus in culture; details: 72 h; for inhibition at 5 µM: read-out: Parasite inhibition (%) Mean ± SD
[3] = tested on: Toxoplasma gondii RH-2F tachyzoites; details: for effect on T. gondii growth in the screen: 5 μM, 72 h
[4] = tested on: mTOR; parameters: method as in S-inhibitor catalog; details: vendor brief description; ref S-inhibitor catalog; cited from earlier work
[5] = tested on: human foreskin fibroblasts (HFFs); details: preliminary screen of compound library; mean
[6] = read-out: Parasite inhibition (%) mean, preliminary screen, mean
[7] = read-out: Parasite inhibition (%) mean, preliminary screen of compound library, mean
[8] = preliminary screen of compound library, mean

Molecule: CC[C@]12C=CCN3CCC4(c5cc([C@@]6(C(=O)OC)C[C@H]7C[C@@H](C(C)(F)F)CN(Cc8c6[nH]c6ccccc86)C7)c(OC)cc5N(C)[C@H]4[C@@](O)(C(=O)OC)[C@@H]1OC(C)=O)C32 (stereo in doubt) [Vinflunine Tartrate]
- viability [1]: 60.8%
- inhibition of growth at 5 µM [2, 6]: 83.2%

Molecule: CC1(C)CCC(CN2CCN(c3ccc(C(=O)NS(=O)(=O)c4ccc(NCC5CCOCC5)c([N+](=O)[O-])c4)c(Oc4cnc5[nH]ccc5c4)c3)CC2)=C(c2ccc(Cl)cc2)C1 [ABT-199 (GDC-0199 )]
- viability at 72 h ([1]; Host viability (%) mean): 25.4%
- inhibition of growth at 5 µM [2, 7]: 70.8%

Molecule: COC(=O)N[C@H](C(=O)N[C@@H](Cc1ccccc1)[C@@H](O)CN(Cc1ccc(-c2ccccn2)cc1)NC(=O)[C@@H](NC(=O)OC)C(C)(C)C)C(C)(C)C [Atazanavir, reference compound]
- viability at 72 h, 5 µM ([1]; Host viability (%) Mean ± SD): 90.7 ± 2.8%
- effect on T. gondii growth in the screen [3]: significantly inhibited T. gondii growth
- inhibition at 5 µM [2]: 93.6 ± 2.1%

Molecule: CNC1CCCN(c2c(F)cc3c(=O)c(C(=O)O)cn(C4CC4)c3c2OC)C1 (stereo not drawn) [Balofloxacin]
- viability at 72 h ([1]; Host viability (%) mean): 76.4%
- inhibition of growth at 5 µM [2, 7]: 71.8%

Molecule: CCN1CCN(c2cc(-c3ccc(F)cc3)c3c(n2)CCCCCC3)CC1 [Blonanserin, reference compound]
- viability at 72 h, 5 µM ([1]; Host viability (%) Mean ± SD): 88.3 ± 5.9%
- inhibition at 5 µM [2]: 82.1 ± 3.1%

Molecule: CN(C)c1ccc(-c2nc3c(N4CCN(CC(=O)Nc5nccs5)CC4)c(Cl)cnc3[nH]2)cc1 [CCT129202]
- viability at 72 h ([1]; Host viability (%) mean): 42.6%
- inhibition of growth at 5 µM [2, 6]: 85.6%

Molecule: CS(=O)(=O)N1CCc2c(-c3cnc(N)nc3)nc(N3CCOCC3)nc21 [CH5132799]
- inhibition of growth at 5 µM [2, 7]: 48.9%
- IC50 [4]: 1600 nM

Molecule: CC(C)C[C@@H](C(=O)N[C@H](C(=O)OC1CCCC1)c1ccccc1)[C@H](O)C(=O)NO [CHR2797, reference compound]
- viability at 72 h, 5 µM ([1]; Host viability (%) Mean ± SD): 88.8 ± 6.7%
- inhibition at 5 µM [2]: 85.6 ± 1.8%

Molecule: C[C@@H](Oc1cc(-c2cnn(C3CCNCC3)c2)cnc1N)c1c(Cl)ccc(F)c1Cl [Crizotinib (PF-02341066)]
- viability [1]: 43.6%
- inhibition of growth at 5 µM [2, 6]: 86.8%

Molecule: CC(O)C(=O)O.CC(O)C(=O)O.CN1CCN(c2ccc3nc(-c4c(N)c5c(F)cccc5[nH]c4=O)[nH]c3c2)CC1 [Dovitinib Dilactic acid]
- Parasite inhibition (%) mean [3, 8]: 18.2%

Molecule: Nc1ccccc1NC(=O)c1ccc(CNC(=O)OCc2cccnc2)cc1 [Entinostat (MS-275, SNDX-275)]
- viability at 72 h ([1]; Host viability (%) mean): 81.6%
- inhibition of growth at 5 µM [2, 6]: 75.7%

Molecule: Nc1ccccc1NC(=O)c1ccc(CNC(=O)OCc2cccnc2)cc1 [Entinostat, reference compound]
- viability at 72 h, 5 µM ([1]; Host viability (%) Mean ± SD): 81.6 ± 1.5%
- inhibition at 5 µM [2]: 75.7 ± 2.2%

Molecule: Cc1c(CN2CCN(C(=O)[C@H](C)O)CC2)sc2c(N3CCOCC3)nc(-c3cnc(N)nc3)nc12 [GDC-0980 (RG7422)]
- inhibition of growth at 5 µM [2, 7]: 33.7%
- Ki [4]: 17 nM

Molecule: CNC(=O)CN(CCN(CCN(CC(=O)[O-])CC(=O)NC)CC(=O)[O-])CC(=O)[O-].O.[Gd+3] [Gadodiamide (Omniscan)]
- Parasite inhibition (%) mean [3, 8]: -0.2%

Molecule: Oc1cc(O)c(Cl)cn1 [Gimeracil]
- viability at 72 h ([1]; Host viability (%) mean): 75.6%
- inhibition of growth at 5 µM [2, 6]: 70.8%

Molecule: Cl.N=C(N)N [Guanidine HCl]
- Parasite inhibition (%) mean [3, 8]: -3.4%

Molecule: CNC(=O)c1ccc(-c2cnc3ncc(Cc4ccc5ncccc5c4)n3n2)cc1F [INCB28060]
- viability [1]: 46.3%
- inhibition of growth at 5 µM [2, 7]: 89.8%

Molecule: CC(C)Cc1ccc(C(C)C(=O)O)cc1.NCCCC[C@H](N)C(=O)O (stereo not drawn) [Ibuprofen Lysine (NeoProfen)]
- Parasite inhibition (%) mean ([3]; preliminary screen, mean): -1.6%

Molecule: O=C(C[S+]([O-])Cc1ccco1)NC/C=C\COc1cc(CN2CCCCC2)ccn1 (stereo not drawn) [Lafutidine, reference compound]
- viability at 72 h, 5 µM ([1]; Host viability (%) Mean ± SD): 92.7 ± 5.6%
- viability at 72 h ([1]; Host viability (%) mean): 92.7%
- inhibition at 5 µM [2]: 70.6 ± 2.5%

Molecule: C[C@]1(O)C[C@@H](c2nc(-c3ccc4ccc(-c5ccccc5)nc4c3)c3c(N)nccn32)C1 [Linsitinib (OSI-906)]
- viability at 72 h ([1]; Host viability (%) mean): 72.2%
- inhibition of growth at 5 µM [2, 6]: 78.8%

Molecule: O=C1CCC[C@@H]2[C@@H]3CCCN4CCC[C@H](CN12)[C@@H]34 [Matrine ((+)-Matrine)]
- viability at 72 h ([1]; uninfected human foreskin fibroblasts (HFFs)): 19.6%
- inhibition of growth at 5 µM [2, 7]: 78.7%

Molecule: Cc1cccc(C(C)c2cnc[nH]2)c1C (stereo not drawn) [Medetomidine HCl, reference compound]
- viability [1]: 90.5%
- viability at 5 µM [1]: 90.5 ± 4.4%
- inhibition at 5 µM [2]: 70.8 ± 1.5%

Molecule: Nc1ccccc1NC(=O)c1ccc(CNc2nccc(-c3cccnc3)n2)cc1 [Mocetinostat (MGCD0103)]
- viability at 72 h ([1]; Host viability (%) mean): 80.2%
- inhibition of growth at 5 µM [2, 6]: 86.5%

Molecule: Nc1ccccc1NC(=O)c1ccc(CNc2nccc(-c3cccnc3)n2)cc1 [Mocetinostat, reference compound]
- viability at 72 h, 5 µM ([1]; Host viability (%) Mean ± SD): 80.2 ± 3.8%
- inhibition at 5 µM [2]: 86.5 ± 3.1%

Molecule: CN(C)Cc1c(C(=O)NCCOc2ccc(C(=O)NO)cc2)oc2ccccc12 [PCI-24781]
- viability at 72 h ([1]; Host viability (%) mean): 33.8%
- inhibition of growth at 5 µM [2, 6]: 82.7%

Molecule: OCCn1cc(-c2cnc3nnn(Cc4ccc5ncccc5c4)c3n2)cn1 [PF-04217903]
- viability at 72 h [1]: 65%
- inhibition of growth at 5 µM ([2]; read-out: Parasite inhibition (%) mean): 88.6%

Molecule: Cc1[nH]c(/C=C2\C(=O)Nc3ccc(S(=O)(=O)Cc4c(Cl)cccc4Cl)cc32)c(C)c1C(=O)N1CCC[C@@H]1CN1CCCC1 [PHA-665752, reference compound]
- viability at 72 h, 5 µM ([1]; Host viability (%) Mean ± SD): 80.5 ± 1.3%
- viability at 72 h ([1]; Host viability (%) mean): 80.5%
- effect on T. gondii growth in the screen [3]: significantly inhibited T. gondii growth
- inhibition at 5 µM [2]: 92.3 ± 3.1%

Molecule: O=S(=O)(F)Cc1ccccc1 [PMSF (Phenylmethylsulfonyl Fluoride)]
- Parasite inhibition (%) mean [3, 8]: 0.8%

Molecule: Cl.NC(=O)c1cnc(N[C@@H]2CCCC[C@@H]2N)nc1Nc1cccc(-n2nccn2)c1 [PRT062607 HCl]
- Parasite inhibition (%) mean [3, 8]: 17.8%

Molecule: NCCC(O)(P(=O)(O)O)P(=O)(O)O [Pamidronate disodium, reference compound]
- viability at 72 h [1]: 80.8%
- viability at 72 h, 5 µM [1]: 80.8 ± 1.4%
- inhibition at 5 µM [2]: 79.6 ± 1.5%

Molecule: [I-].[K+] [Potassium iodide]
- Parasite inhibition (%) mean [3, 8]: 10.2%

Molecule: C=C[C@H]1C[N@@]2CC[C@H]1C[C@H]2[C@H](O)c1ccnc2ccc(OC)cc12 [Quinine hydrochloride dihydrate]
- viability [1]: 79.4%
- inhibition of growth at 5 µM [2, 7]: 78.9%

Molecule: COc1cc(Nc2ncc(F)c(Nc3ccc4c(n3)N(COP(=O)(O)O)C(=O)C(C)(C)O4)n2)cc(OC)c1OC [R935788]
- Parasite inhibition (%) mean ([3]; preliminary screen, mean): 28.5%

Molecule: N[C@@H]1CN(c2c(F)cc3c(=O)c(C(=O)O)cn([C@@H]4C[C@@H]4F)c3c2Cl)CC12CC2.O [Sitafloxacin hydrate]
- Parasite inhibition (%) mean [3, 8]: 53.1%

Molecule: N#CC(=C(/N)Sc1ccccc1N)/C(C#N)=C(/N)Sc1ccccc1N [U0126, reference compound]
- effect on T. gondii growth in the screen [3]: no effect on T. gondii growth

Molecule: Cc1cc(Nc2cc(N3CCN(C)CC3)nc(Sc3ccc(NC(=O)C4CC4)cc3)n2)n[nH]1 [VX-680 (MK-0457, Tozasertib)]
- viability at 72 h ([1]; Host viability (%) mean): 34.7%
- inhibition of growth at 5 µM [2, 6]: 70.7%

Molecule: CN[C@H](CC(C)C)C(=O)N[C@H]1C(=O)N[C@@H](CC(N)=O)C(=O)N[C@H]2C(=O)N[C@H]3C(=O)N[C@@H](C(=O)N[C@H](C(=O)O)c4cc(O)cc(O)c4-c4cc3ccc4O)[C@H](O)c3ccc(c(Cl)c3)Oc3cc2cc(c3O[C@H]2O[C@H](CO)[C@@H](O)[C@H](O)[C@H]2O[C@H]2C[C@@](C)(N)[C@H](O)[C@H](C)O2)Oc2ccc(cc2Cl)[C@H]1O.Cl [Vancomycin HCl (Vancocin)]
- Parasite inhibition (%) mean [3]: 0.8%

Molecule: COc1cc2c(Nc3ccc(Br)cc3F)ncnc2cc1OCC1CCN(C)CC1 [Vandetanib (Zactima)]
- viability at 72 h [1]: 79.5%
- inhibition of growth at 5 µM [2, 6]: 80.2%

Molecule: c1cncc(CN2CCC(n3ncc4c(N5CCOCC5)nc(-c5ccc6[nH]ccc6c5)nc43)CC2)c1 [WAY-600]
- inhibition of growth at 5 µM [2, 7]: 35.5%
- IC50 [4]: 9 nM

Molecule: COC(=O)Nc1ccc(-c2nc(N3CCOCC3)c3cnn(C4CCN(Cc5cccnc5)CC4)c3n2)cc1 [WYE-687]
- inhibition of growth at 5 µM [2, 7]: 28.7%
- IC50 [4]: 7 nM

Molecule: CNC(=O)Nc1ccc(-c2nc(N3CC4CCC(C3)O4)c3cnn(C4CCC5(CC4)OCCO5)c3n2)cc1 [WYE-125132]
- inhibition of growth at 5 µM [2, 7]: 44.4%
- IC50 [4]: 0.19 nM

Molecule: COc1cc2c(Nc3ccc(NC(=O)c4ccccc4)cc3)ncnc2cc1OCCCN1CCOCC1 [ZM-447439]
- viability at 72 h ([1]; Host viability (%) mean): 31.2%
- inhibition of growth at 5 µM [2, 6]: 70.2%

Molecule: Cc1cc(C)c(/C=C2\C(=O)Nc3ccccc32)[nH]1 [semaxanib, reference compound]
- effect on T. gondii growth in the screen [3]: no effect on T. gondii growth

Molecule: AT101
- Parasite inhibition (%) mean [3]: 70.4%
- Host viability (%) mean [5]: 68.8%

Molecule: Biapenem
- Parasite inhibition (%) mean [3, 8]: 5.8%

Molecule: Ulipristal
- Parasite inhibition (%) mean [3, 8]: -0.7%

Source: PMC7216583 (Parasites & Vectors, 2020)
